# Publication PMC11643690, “Chelating Properties of N6O-Donors Toward Cu(II) Ions: Speciation in Aqueous Environments and Catalytic Activity of the Dinuclear Complexes” (Molecules, 2024)
# What was measured:
# [1] = ESI-MS(+) competition with equimolar Cu, Fe, Mn, Zn perchlorates; format: binding; settings: half an equivalent of ligand
# Procedure: Equimolar solutions of Cu(ClO4)2, Fe(ClO4)2, Mn(ClO4)2, and Zn(ClO4)2 were prepared, and half an equivalent of HL-CH3 was added. The composition of the solution was then analyzed with ESI-MS to determine which species were formed. […] The most intense signal is the cluster at m/z = 855, referring to the species [Cu2(L-CH3)(ClO4)2]^+. Other signals are at m/z = 801 for [Cu2(L-CH3)(COO)(ClO4)]^+ and m/z = 351 for [Cu2(L-CH3)(ClO4)]^2+.
# β-amyloid 1–40 peptide = target: T1, β-amyloid 1–40 peptide (Homo sapiens, UniProt P05067); experiment: Thioflavin T (ThT) fluorescence aggregation assay; format: biochemical; settings: [ThT] = 10 μM; [β-amyloid 1–40] = 10 μM; 10 μM test substance; PBS pH 7.4, 37 °C
# T1 construct: β-Amyloid (1–40) was purchased from GenScript; purchased GenScript (Leiden, the Netherlands)
# Procedure: To evaluate the anti-aggregation ability of the complexes, the β-amyloid 1–40 peptide was selected due to its higher solubility and slower aggregation rate compared to the full-length Aβ 1–42. Aggregation experiments were conducted using the Thioflavin T (ThT) fluorescence assay, which is a standard method to monitor amyloid aggregation. ThT binds specifically to amyloid fibrils, causing an increase in fluorescence intensity. If a complex inhibits peptide aggregation, the observed fluorescence increase will be lower compared to the reference, indicating inhibition.
# In this experiment, the amyloid peptide was first dissolved in 1,1,1,3,3,3-hexafluoro-2-propanol (HFIP) to facilitate its unfolding. A 0.2 mM solution of the peptide was then prepared in 10 mM PBS (containing 100 mM NaCl, pH 7.4). To this solution, equimolar amounts of ThT (prepared in the same buffer) and the complex (dissolved in methanol) were added.
# Aggregation test: ThT method
# Amyloid peptides Aβ1-40 were used for this analysis. […]
# • For the measurement, fluorescence spectra were recorded with a plate reader, using a Tecan […]
# The fluorescence of sample solutions was monitored at 37° C over a period of about 30 hours, acquiring values every 20 minutes. The fluorescence variation of ThT was compared in the presence/ absence of amyloid/ ligands/ complexes.
# [2] = UV–Vis titration of HL-CH3 with Mn(ClO4)2, binding constant; settings: Mn(II); 0.1 mM ligand, 5% v/v MeOH/BBS 50 mM, pH 7.4
# Procedure: To evaluate the selectivity of these ligands towards copper, the same titrations were performed with different metal salts: Fe(ClO4)2, Mn(ClO4)2, and Zn(ClO4)2, monitoring the methyl-substituted ligand (Figures S39–S41). These metal ions were chosen because they are also divalent and common in biological matrixes.
# For the determination of the binding constant between metals and ligands, a solution of the latter was titrated with 0.2 eq of metal for each addition. The titrating solutions were 10 mM and 100 μM for Cu(ClO4)2 versus 0.1 mM and 1 μM for the ligands in 5% v/v MeOH/BBS (50 mM, pH 7.4), respectively. […] The absorbance variation was monitored from 200 nm to 800 nm at 25 °C. […]
# UV-vis spectra of ligands and complexes were recorded in a quartz cuvette, with 1 cm of optical path. […]
# The titrating solutions were 10 mM and 100 μM for Cu(ClO4)2 versus 0.1 mM and 1 μM for the ligands in 5% v/v MeOH/BBS (50 mM, pH 7.4), respectively. […] The absorbance variation was monitored from 200 nm to 800 nm with a Varian Cary 50 instrument, thermostated at 25 °C.
# The binding constants were then determined by nonlinear regression analysis of the plot “ΔAbs/b vs Cu(II) concentration” (Equation 7 ), according to K. Connors, The Measurement of Molecular Complex Stability, Madison, Wisconsin, Wiley, 1987[5]. […]
# ΔA: absorbance at a certain wavelength. […]
# T1 sequence (P05067 672-711 limits assumed): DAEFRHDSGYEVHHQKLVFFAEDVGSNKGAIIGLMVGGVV
smiles,measurement,setting,value
"Cc1cc(CN(Cc2ccccn2)Cc2ccccn2)c(O)c(CN(Cc2ccccn2)Cc2ccccn2)c1 [HL-CH3, 2,6-bis[(bis(2-pyridylmethyl)amino)methyl]-4-methylphenol]",species formed in ESI-MS(+) spectrum,[1],only ascribable to the copper complex
same,inhibition of Aβ 1–40 aggregation (ThT fluorescence),β-amyloid 1–40 peptide,moderate inhibition
same,Kbind,[2],6.12 × 10^7 M^−2
same,log(Kbind),[2],7.78
